According to patent US20150284362A1, “CARBAZOLE-CONTAINING AMIDES, CARBAMATES, AND UREAS AS CRYPTOCHROME MODULATORS” (ReSet Therapeutics, Inc., priority 2014, published 2015):

Tests used:
[1] = system: core clock gene mRNAs in liver; experiment: Four day study, liver core clock gene mRNA, ICR mice; format: in vivo, mouse; conditions: 50 mg/kg PO BID 4 days, ZT6
Procedure: Male ICR mice (weighing 30-35 g), obtained from Charles River Laboratories (Hollister, Calif.), were used for the experiment following at least 3 days of acclimation. Mice were dosed with vehicle (WFI or 10% Kolliphor) or compound (50 mg/kg, dose volume 5 mL/kg, PO) for 4 days BID (twice a day), beginning in the afternoon of the first day. The last dose of compound or vehicle was administered on the morning of harvest. On the day of harvest (6 hours following the final dose), mice were euthanized by CO2 asphyxiation and 50 mg of liver tissue was excised and placed in a tube containing 500 μl of RNA later.
E.Z.N.A.® HP Total RNA Isolation Kits (R6812-01 and the protocol described in the Manual, Revised 2010) were utilized to prepare and isolate RNA from the liver samples. To prepare the RNA samples, 10-30 mg of sample was removed from RNA-Later and placed in a 1.5 ml microfuge tube. […] The cleared supernatant was transferred by pipetting to a DNA Clearance Column Pre-inserted in a 2 mL Collection Tube. The assembled column was centrifuged at 13,000×g for 1 minute, and the flow-through was saved. An equal volume (700 μl) of 70% ethanol was added to the lysate and mixed. The sample was then applied to a HiBind RNA spin column placed into a 2 ml collection tube, which was centrifuged at 10,000×g for 60 seconds at room temperature. RNA Wash Buffer I (250 μl) was added by pipetting directly onto a new HiBind RNA column inserted in a 2 ml collection tube. The assembled column was centrifuged at 10,000×g for 60 seconds. The RNA column was placed into a new 2 ml collection tube. […] The column with bound RNA was incubated at room temperature (25-30° C.) for 15 minutes. RNA Wash Buffer I (500 μl) was added to the column and placed on a bench top for 2 minutes. After centrifuging at 10,000×g for 60 seconds, discarding the flow-through, 500 μl of RNA Wash Buffer II was added and centrifuged at 10,000×g for 60 seconds. Another 500 μl of RNA Wash Buffer II was added and the column assembly was centrifuged at 10,000×g for 60 seconds. The column was centrifuged for 2 minutes at maximum speed to completely dry the HiBind matrix. The column was placed in a clean 1.5 ml microcentrifuge tube and 40-70 μl of molecular biology grade water is added. After sitting for 1 minute, the column was centrifuged for 2 minutes at maximum speed to elute the RNA. The isolated RNA was collected into the collection tube.
RediPlate 96 RiboGreen RNA Quantification Kit (Invitrogen) RediPlate standard curve was prepared by transferring 20 μl reconstituted RNA standard to a RediPlate well reconstituted in 180 μl RediPlate TE buffer. For liver RNAs prepared from 30-100 mg of tissue using a kit similar to the Omega Bio-Tek HP Total RNA Kit and eluted in RNAse-free water in a volume of 50 μl (microliters), 5 μl of the total RNA is diluted in 195 μl of RediPlate TE buffer (1:40 dilution of RNA), mix. […] Alternatively, one can use the FlexStation 3 with Ex 488 nm and Em 525 nm and a Cutoff of 515 nm.

C57/Bl6J DIO mice [2] = experiment: 7 day dosing in diet-induced obesity (DIO) mouse model of type II diabetes; format: in vivo; conditions: 30 mg/kg PO QD 7 days (positive control)
Excerpt: (§1) Male C57/Bl6J DIO mice were obtained from The Jackson Laboratory (Sacramento, Calif.). […] Animals were accustomed to these conditions for at least 2 weeks before experimentation and used at approximately 24 weeks of age.
(§2) Significance was accepted when p<0.05.

C57/Bl6J DIO mice [3] = experiment: Increasing dosages of Compound 72 over 7 days in diet-induced obesity (DIO) mouse model; format: in vivo; conditions: 30 mg/kg PO QD 7 days
Excerpt: as §1, §2
Male C57/Bl6J DIO mice were obtained from The Jackson Laboratory (Sacramento, Calif.). […] Animals were accustomed to these conditions for at least 2 weeks before experimentation and used at approximately 26 weeks of age.

Procedure for db/db mice: Male db/db mice homozygous for Lepr^db (6 weeks of age), were obtained from The Jackson Laboratory (Bar Harbor, Me.). Mice were group housed on a normal light/dark cycle (lights on: 07:00-19:00 h) with ad libitum access to a standard pelleted mouse diet and water. Animals were accustomed to these conditions for 2 weeks before experimentation. […] At 10:30 pm on the evening prior to endpoint measurement, mice were placed into clean cages and given free access to water, but not food for a period of 12 hours before the fasting blood glucose measurement. On the final day of the study, animals were dosed as normal, and then underwent a tail cut injury 2 hours prior to measurement of fasting blood glucose, to allow recovery from any stress the procedure might cause. Fasting blood glucose (FBG) was assessed from the animals at 10:30 am using an AlphaTRAK glucometer (Abbott Laboratories, USA). Following the FBG measurement blood was collected from each mouse, using a tail milking technique, into a capillary tube. Capillary tubes were centrifuged in a hematocrit (BD Triac 0200) and the resultant plasma transferred to an eppendorff. This sample, labelled as t=0 hr, was frozen at −80° C. to allow later measurement of insulin. At 11:30 am each animal was dosed with 0.5 g/kg of glucose, then blood glucose was measured at t=15, 30, 60, 90 and 120 minutes after glucose load. At the end of the OGTT blood was collected for a t=2 hr insulin determination as described above.
Fasting blood glucose values and glucose measurements taken during the OGTT were averaged and graphed (GraphPad Prism, GraphPad Software, La Jolla, Calif.). The area under the curve (AUC) was calculated for each individual animal. Plasma insulin levels were determined using an Ultrasensitive Insulin ELISA (ALPCO, Salem, N.H.). […] Insulin data was also represented in GraphPad Prism format. Statistical analysis was performed using one-way ANOVA followed by the appropriate post-test. Significance was accepted when p<0.05. Data are presented as mean and S.E.M.

Structure (SMILES)	Cry2 transcripts in liver [1]	liver Per2 expression [1]	HOMA-IR (C57/Bl6J DIO mice [2])	fasting blood glucose (C57/Bl6J DIO mice [2])	plasma insulin at t=0 (C57/Bl6J DIO mice [2])	plasma insulin at t=2 hr (C57/Bl6J DIO mice [2])	fasting blood glucose (C57/Bl6J DIO mice [3])	HOMA-IR (db/db mice; 30 mg/kg PO QD 7 days)	plasma insulin at t=0 (db/db mice; 30 mg/kg PO QD 7 days)	plasma insulin at t=2 hr (db/db mice; 30 mg/kg PO QD 7 days)	fasting blood glucose (db/db mice; 30 mg/kg PO QD 7 days (positive control))
O=C1C2CCC(C2)N1CC(O)Cn1c2ccc(F)cc2c2cc(F)ccc21 (stereo not drawn) [Compound 48, 2-(3-(3,6-difluoro-9H-carbazol-9-yl)-2-hydroxypropyl)-2-azabicyclo[2.2.1]heptan-3-one]	decrease	suppression									
COC1CCCN(CC(O)Cn2c3ccc(F)cc3c3cc(F)ccc32)C1=O (stereo not drawn) [Compound 57, 1-(3-(3,6-difluoro-9H-carbazol-9-yl)-2-hydroxypropyl)-3-methoxypiperidin-2-one]		suppression									
CN(CCOc1ccc(CC2SC(=O)NC2=O)cc1)c1ccccn1 (stereo not drawn) [Rosiglitazone]			24.60+/−1.42 units	153.9 ± 5.05 mg/dL	2.70 ± 0.12 ng/mL	2.30 ± 0.06 ng/mL	161.1 ± 8.06 mg/dL	50.58+/−3.52 units	3.05 ± 0.14 ng/mL	2.28 ± 0.08 ng/mL	280.4 ± 13.66 mg/dL
